The source of these data is patent US20160067232A1, “METHODS FOR TREATING A STROKE-RELATED SENSORIMOTOR IMPAIRMENT USING AMINOPYRIDINES” (Acorda Therapeutics, Inc., priority 2011, published 2016).

“And” between values parts separate entries of the source, which are not always exact repeats. Equal values may be shown once.

In data set [1] the test system is rats with middle cerebral artery occlusion (MCAO). In words: Infarct volume measurement, MCAO rats (Example 17). The format is in vivo, Sprague Dawley rat. On the procedure: Infarct measurement: Brains were embedded in paraffin and 5 micron thick coronal sections were cut using a microtome. Sections were stained with hematoxylin and eosin (H&E), using standard methods. Seven coronal sections (+4.7, +2.7, +0.7, −1.3, −3.3, −5.3 and −7.3, compared to bregma respectively) from each brain were photographed by a digital camera, and the infarct area on each slice was determined by NIH Image (Image J) using the “indirect method” (area of the intact contralateral [left] hemisphere−area of intact regions of the ipsilateral [right] hemisphere) to correct for brain edema. Infarct areas were then summed among slices and multiplied by slice thickness (the distance between sections) to give total infarct volume, which was expressed as a percentage of intact contralateral hemispheric volume.
Euthanasia and post-mortem processing: At day 70 after MCAO rats were anesthetized as described in Example 2, above.
Infarct measurement: Infarct measurement was performed as described in Example 2, above.
Statistical Methods: Changes from pre-treatment baseline values (Day 56) were calculated for each behavioral score at each time point assessed after dosing. Mean behavioral parameter data were subject to Analysis of Variance (ANOVA). Infarct volume data were analyzed by ANOVA. All data were expressed as means±SEM.

Data set [2] has the same test system. In words: Hindlimb placing test, MCAO rats, double crossover study (Example 2). The following applies: for Hindlimb Placing Total Score, individual animals: one value per rat; for Hindlimb Placing Total Score, Mean: N 15. The format is in vivo, Sprague Dawley rat. Set-up: Hindlimb Placing Total Score, individual animals / Hindlimb Placing Total Score, Mean: scale not given here. On the procedure:
4-AP was evaluated for its ability to promote functional sensorimotor improvement following ischemic stroke in rats with stable motor deficits at times remote from their ischemic events. The animal model mimics the conditions in human ischemic stroke and is produced by middle cerebral artery occlusion (MCAO), which results in extensive infarction in cerebral cortex and striatum, including the cortical spinal tract (white matter).
In particular, the MCAO model in Sprague Dawley rats that was utilized in the experiments presented below mimics the conditions in human ischemic stroke. In this model, focal cerebral infarcts were made by permanent occlusion of the proximal right middle cerebral artery (MCA) using a modification of the method of Tamura et al. (No To Shinkei 1986; 38:747-51). Briefly, the temporalis muscle was bisected and reflected through an incision made midway between the eye and the ear canal. The proximal MCA was exposed through a subtemporal craniectomy without removing the zygomatic arch and without transecting the facial nerve.
Dosing and Treatment: Rats were treated in accordance with the dosing schedule shown in Tables 2A, 2B, 3 and FIG. 2, with each Phase being a two week period of time. A solution of 4-AP was used in this experiment. Dosing was started at 4 weeks after ischemic event. 4-aminopyridine was dissolved in water for injection (WFI, Cellgro) and sterile filtered. Final concentrations of 0.315 mg/mL or 1.0 mg/mL of 4-aminopyridine were delivered at 2 mL/kg by gastric gavage, resulting in final doses of 0.63 mg/kg and 2 mg/kg respectively. Vehicle control treatment was WFI delivered at 2 mL/kg by gastric gavage. This study was divided into three treatment phases (1-3) with each randomized cohort of animals receiving a different dose level during each of the treatment phases. Starting on day 30 after MCAO (Day 30, start of phase 1), the animals received gavage dosing of solutions (2 mL/kg) approximately 12 hours apart, for a total of five doses. The same schedule was repeated with different treatment on Day 44 and Day 58 for phase 2 and 3 of the study, respectively. Animals were not treated during the 10 days between phases (washout period).
Treatment groups: Dosing was started 4 weeks after MCAO surgery. During these 4 weeks, weekly behavioral assessments, as defined below, were performed. Two dose levels of 4-AP plus vehicle control were assessed, with treatment starting at 4 weeks after ischemic event. All dosing was via gastric gavage, volume not to exceed 2 mL/kg. Animals were given the first dose and behavioral assessments were performed starting 60 minutes after dosing. Animals then received the second dose that day at the appropriate time and b.i.d (preferably every 12 hours) thereafter for 2 more days (3 total days of dosing, 5 total doses). One hour after the 5th dose, animals were subjected to behavioral assessments as defined below. Following the final behavioral assessment, drug was withdrawn for 10 or 11 days, behavior was re-assessed, and then animals were re-challenged with a cross-over treatment (Phase 2 of Table 2B) as described in Tables 2A, 2B and 3, followed by the same behavioral testing and dosing regimen. This cross-over was repeated one more time as well (Phase 3 of Table 2B) (see FIG. 2).
Behavioral test details: Behavioral evaluations were done by evaluators blinded to treatment assignment. Blinded assessments of sensorimotor function were performed just prior to MCAO surgery, 24 hours after MCAO surgery and weekly thereafter until the first phase of dosing using limb placing and body swing behavioral tests. As described above, behavioral assessments were timed exactly with dosing times. Animals were tested one hour after the 1st and 5th doses of each phase (i.e., Days 30 and 32 of the first phase, Days 44 and 46 of the second phase; and Days 58 and 60 of the third phase); animals were also tested during the washout periods on Days 42 and 56. […]

For data set [3] the following is noted: human subjects; Donovan et al., Spinal Cord 2000; cited from earlier work.
[4] abbreviates: Group 3 (sequence vhl), D44 after MCAO, phase 2, high dose.
Where [5] appears, read: Group 3 (sequence vhl), D46 after MCAO, phase 2, high dose.
Where [6] appears, read: Group 3 (sequence vhl), D58 after MCAO, phase 3, low dose.
The mark [7] stands for this setting: Group 3 (sequence vhl), D60 after MCAO, phase 3, low dose.

Take `Nc1ccncc1` [4-aminopyridine]: the “Mean (SE) Infarct Volume (%)” value in data set [1] (4-AP dose escalation 0.5, 1 and 2 mg/kg p.o. b.i.d. Days 56-65 after MCAO) is on record as 40.0 (2.3) %. Moreover, in data set [1] (Day 70 after MCAO), the “Infarct volume, 4-aminopyridine versus vehicle (water)” value is reported as “no differences in infarct volume were observed”. Also, the “Hindlimb function, low dose compared to vehicle” value in data set [2] (0.63 mg/kg b.i.d. p.o., first mixed model, p=0.0027) is on record as “significantly improved the hindlimb function”. Moreover, the “Hindlimb function, high dose compared to vehicle” value in data set [2] (2 mg/kg b.i.d. p.o., first mixed model, p<0.0001) is on record as “significantly improved the hindlimb function”. For the same compound, the “Hindlimb Placing Total Score, individual animals” value was 2.50 and 1.50 (6×) and 2.00 (5×) and 1.00 and 0.50 and 3.00 in data set [2] (Group 2 (sequence lvh), D30 after MCAO, phase 1, low dose); 2.00 (2×) and 1.00 (4×) and 1.50 (8×) and 0.50 in data set [2] (Group 2 (sequence lvh), D32 after MCAO, phase 1, low dose); 2.00 (2×) and 0.00 (5×) and 1.00 and 1.50 (4×) and 0.50 (3×) in data set [2] (Group 2 (sequence lvh), D58 after MCAO, phase 3, high dose); 0.50 (5×) and 0.00 (9×) and 1.00 in data set [2] (Group 2 (sequence lvh), D60 after MCAO, phase 3, high dose); 2.00 (2×) and 0.00 (3×) and 1.50 and 1.00 (2×) and 0.50 (2×) in data set [2] (setting [4]); 1.00 and 0.00 (6×) and 0.50 (3×) in data set [2] (setting [5]). Further, the “Hindlimb Placing Total Score, individual animals” value in data set [2] (setting [6]) is 1.50 and 0.50 (3×) and 1.00 (3×) and 3.00 and 0.00 (2×); in data set [2] (setting [7]) it was 1.50 and 1.00 (3×) and 0.50 (2×) and 2.00 and 0.00 (3×). Also, the “Hindlimb Placing Total Score, Mean” value in data set [2] (setting [4]) is 0.90; in data set [2] (setting [5]), 0.30; in data set [2] (setting [6]), 0.80; in data set [2] (setting [7]), 0.70. Moreover, the “Effect on hindlimb function (FIGS. 4A-D)” value in data set [2] (low or high dose, 4 weeks post ischemic brain injury, dose responsive, reversible) was “effective to improve hindlimb function”. Moreover, the “delay in the peak concentration in cerebrospinal fluid compared to that in the blood” value in data set [3] is “approximately an hour”.
